Data from PMC9532399, “The lysosomal transporter TAPL has a dual role as peptide translocator and phosphatidylserine floppase” (Nature Communications, 2022).
No end group written: not given here.

B1: mouse TAPL truncation mutant devoid of the N-terminal 142 residues (ΔTMD0) (domain or fragment, UniProt Q9JJ59 143-762, looked up)
chain: DAEALEPGNEGFHGEGGAPAEQASGATLQKLLSYTKPDVAFLVAASFFLIVAALGETFLPYYTGRAIDSIVIQKSMDQFTTAVVVVCLLAIGSSLAAGIRGGIFTLVFARLNIRLRNCLFRSLVSQETSFFDENRTGDLISRLTSDTTMVSDLVSQNINIFLRNTVKVTGVVVFMFSLSWQLSLVTFMGFPIIMMVSNIYGKYYKRLSKEVQSALARASTTAEETISAMKTVRSFANEEEEAEVFLRKLQQVYKLNRKEAAAYMSYVWGSGLTLLVVQVSILYYGGHLVISGQMSSGNLIAFIIYEFVLGDCMESVGSVYSGLMQGVGAAEKVFEFIDRQPTMVHDGSLAPDHLEGRVDFENVTFTYRTRPHTQVLQNVSFSLSPGKVTALVGPSGSGKSSCVNILENFYPLQGGRVLLDGKPIGAYDHKYLHRVISLVSQEPVLFARSITDNISYGLPTVPFEMVVEAAQKANAHGFIMELQDGYSTETGEKGAQLSGGQKQRVAMARALVRNPPVLILDEATSALDAESEYLIQQAIHGNLQRHTVLIIAHRLSTVERAHLIVVLDKGRVVQQGTHQQLLAQGGLYAKLVQRQMLGLEHPLDYTASHKEPPSNTEHKA
notes: mouse TAPL (ABCB9), protein of 762 amino acids, lacking the N-terminal 142 residues (TMD0); Homodimer by the cryo-EM structures; A thrombin site stood between TAPL and eGFP-10XHis; residues of the site may be left at the C-terminus after cleavage; also called ABCB9; TAP-like; source: High Five (Hi5) insect cells, baculovirus; purified (anti-GFP DARPin agarose, on-column thrombin cleavage, gel …)

How the values were obtained:
[1] = target: T1, mouse TAPL ΔTMD0 (Mus musculus, UniProt Q9JJ59); experiment: Lipid-stimulated ATPase assay, DM-purified ΔTMD0; type: biochemical
T1 construct: thrombin cleavage site (C); eGFP (C); 10XHis (C); made in house; host or cells: Trichoplusia ni High Five (Hi5) insect cells, baculovirus (pVL1393)
T1 sequence (Q9JJ59 143-762): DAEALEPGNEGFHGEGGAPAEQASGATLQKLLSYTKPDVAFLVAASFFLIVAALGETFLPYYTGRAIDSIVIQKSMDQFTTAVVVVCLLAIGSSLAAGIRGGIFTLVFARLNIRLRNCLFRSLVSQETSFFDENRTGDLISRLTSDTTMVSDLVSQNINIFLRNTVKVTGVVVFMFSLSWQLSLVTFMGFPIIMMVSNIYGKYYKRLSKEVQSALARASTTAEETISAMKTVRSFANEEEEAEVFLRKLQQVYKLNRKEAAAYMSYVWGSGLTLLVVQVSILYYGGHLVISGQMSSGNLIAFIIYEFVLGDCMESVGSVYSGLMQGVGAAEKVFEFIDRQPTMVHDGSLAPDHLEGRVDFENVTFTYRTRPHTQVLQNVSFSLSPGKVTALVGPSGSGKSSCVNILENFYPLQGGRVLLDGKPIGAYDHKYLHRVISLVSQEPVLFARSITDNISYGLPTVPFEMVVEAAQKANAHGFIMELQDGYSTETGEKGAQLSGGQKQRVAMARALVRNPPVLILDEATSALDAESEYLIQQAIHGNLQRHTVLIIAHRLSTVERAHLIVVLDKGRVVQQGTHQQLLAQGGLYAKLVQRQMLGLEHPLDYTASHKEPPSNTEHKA
Description: (§1) The ATPase activities of proteins obtained after various purification procedures were determined by NADH-coupled spectrophotometric assays. 10 μg of DM-purified or nanodisc-reconstituted protein was added to 140 μL of reaction buffer containing 50 mM HEPES–KOH pH 8.0, 60 μg/mL pyruvate kinase (Roche), 16 μg/mL lactate dehydrogenase (Roche), 10 mM phosphoenolpyruvate (Roche), 0.3 mM NADH, 3 mM ATP, 10 mM MgCl2, and 0.17% (w/v) DM in the presence or absence of 250 μM peptide. For proteins reconstituted into nanodiscs, DM was not added to the reaction buffer. For lipid-stimulated ATPase assays, the thin film of lipids was hydrated in 100 μL of buffer containing 50 mM HEPES–KOH pH 8.0 and 10 mM MgCl2 to yield a 10 mM solution. After sonication of the lipid solution for 10 min to decrease its turbidity, the reaction was initiated by adding varying concentrations of lipids to the mixture. ATP hydrolysis activity was monitored at 37 °C for 3 min by measuring the rate of decline of NADH absorbance at 340 nm. To inhibit ATP hydrolysis, the reaction mixture was incubated with 3 mM AMP-PNP or 8 mM NaF/2 mM BeSO4 for 5 min at RT. The kinetic parameters of ATP hydrolysis were calculated by fitting the initial rates of ATP hydrolysis to the Michaelis–Menten equation using PRISM 4.0 (GraphPad software).

[2] = target: T2, TAPL Y405A mutant (Mus musculus, UniProt Q9JJ59, Y405A); experiment: Lipid-stimulated ATPase assay, DM-purified Y405A mutant; type: biochemical; conditions: Y405A vs WT
T2 construct: thrombin cleavage site (C); eGFP (C); 10XHis (C); made in house; host or cells: Trichoplusia ni High Five (Hi5) insect cells, baculovirus (pVL1393)
T2 sequence (Q9JJ59 143-762 Y405A): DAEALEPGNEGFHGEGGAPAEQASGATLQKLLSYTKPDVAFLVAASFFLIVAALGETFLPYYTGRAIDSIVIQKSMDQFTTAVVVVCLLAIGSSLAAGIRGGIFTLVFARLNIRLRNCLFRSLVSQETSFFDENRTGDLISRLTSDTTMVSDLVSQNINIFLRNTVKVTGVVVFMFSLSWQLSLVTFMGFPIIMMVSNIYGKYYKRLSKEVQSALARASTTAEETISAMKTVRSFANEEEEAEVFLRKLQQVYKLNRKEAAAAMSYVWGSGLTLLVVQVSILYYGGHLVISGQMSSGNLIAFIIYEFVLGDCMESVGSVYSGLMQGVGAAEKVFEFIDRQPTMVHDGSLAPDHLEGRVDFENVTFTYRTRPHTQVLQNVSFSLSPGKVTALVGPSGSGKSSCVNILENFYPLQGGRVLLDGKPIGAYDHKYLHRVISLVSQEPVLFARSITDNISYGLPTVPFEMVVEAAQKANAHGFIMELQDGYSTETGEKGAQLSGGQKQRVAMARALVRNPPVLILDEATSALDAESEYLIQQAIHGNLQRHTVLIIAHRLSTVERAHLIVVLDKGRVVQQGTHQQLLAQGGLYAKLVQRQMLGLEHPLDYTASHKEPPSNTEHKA
Description: as §1

[3] = target: T1, mouse TAPL ΔTMD0; experiment: Dithionite-based flip-flop (floppase) assay of NBD*-labeled lipids, ΔTMD0 proteoliposomes; type: biochemical; conditions: 10% (mol/mol) unlabeled POPS, or presence of the 9-mer peptide
Description: All lipids used in reconstitution were purchased from Avanti Polar Lipids, Inc. (purity > 99%). The in vitro flip–flop assay was performed using NBD* dye-labeled proteoliposomes as described previously. Briefly, E. coli polar lipids and egg PC were mixed in a 1:1 molar ratio, and 0.5% (mol/mol) NBD*-lipid was added. The lipid mixture was then dried under nitrogen gas. The NBD*-lipids used were 18:1-06:0 NBD*-PS (1-oleoyl-2-{6-[(7-nitro-2-1,3-benzoxadiazol-4-yl)amino]hexanoyl}-sn-glycero-3-phosphoserine), 18:1-06:0 NBD*-PC (1-oleoyl-2-{6-[(7-nitro-2-1,3-benzoxadiazol-4-yl)amino]hexanoyl}-sn-glycero-3-phosphocholine), 18:1-06:0 NBD*-PG (1-oleoyl-2-{6-[(7-nitro-2-1,3-benzoxadiazol-4-yl)amino]hexanoyl}-sn-glycero-3-[phospho-rac-(1-glycerol)]), 18:1-06:0 NBD*-PE (1-oleoyl-2-{6-[(7-nitro-2-1,3-benzoxadiazol-4-yl)amino]hexanoyl}-sn-glycero-3-phosphoethanolamine), and 25-NBD*-Cholesterol (25-[N-[(7-nitro-2-1,3-benzoxadiazol-4-yl)methyl]amino]−27-norcholesterol). Thin lipid films were solubilized in 20 mM HEPES–NaOH pH 8.0, 200 mM NaCl and 5% (v/v) glycerol, incubated at RT for 30 min and subjected to 5 freeze–thaw cycles. After extrusion with a Mini-Extruder at 65 °C, final lipid concentrations were determined by phosphorus assays. Briefly, 10 μL of extruded lipid was added to 10 μL of 2% (w/v) ammonium molybdate and 300 μL of concentrated perchloric acid. The mixture was heated at 250 °C for 30 min, then cooled to RT and mixed with 1.5 mL of 0.4% (w/v) ammonium molybdate and 250 μL of 9% (w/v) L-ascorbic acid. It was again heated at 100 °C for 6 min and cooled to RT. Lipid concentrations were calculated from the absorbance at 820 nm using a standard curve prepared with NaH2PO4 solution. After accurately determining the lipid concentration, DM-purified protein and 5 mM lipid suspension (solubilized in 5 mM DM) were mixed 1:25 (w/w). After incubation at 4 °C for 1.5 h, DM detergent was removed with 75 mg Bio-beads SM-2 by periodic gentle shaking for 1 h at 4 °C (Supplementary Fig. 5a). The beads were replaced once, followed by an additional incubation at 4 °C for 2 h to completely remove detergent. The resulting proteoliposomes were collected by ultracentrifugation at 200,000×g for 1.5 h at 4 °C.
To measure the flip–flop activity, 10 μL of 2 mM NBD*-labeled proteoliposomes were added to 100 μL of reaction buffer (20 mM HEPES–NaOH pH 8.0, 200 mM NaCl, 5 mM ATP and 5% (v/v) glycerol) in the presence of 2 mM MgCl2 (or NaCl), and incubated at 37 °C for 1 h. The mixture was transferred to a 96-well plate and time-dependent fluorescence (λex/λem = 460/538 nm) was recorded every 30 s for 26 min using a fluorescence spectrophotometer (Gemini XPS). After the baseline fluorescence had stabilized, 10 mM sodium dithionite was added to quench the fluorescence of NBD*-lipid present in the outer leaflets of the liposomes. The initial rapid drop and subsequent slow decline in fluorescence intensity were monitored. When a new steady state was established, 1% (v/v) Triton X-100 was added to completely disrupt the liposomes. The net percentage of NBD*-lipid translocated across the lipid bilayer was calculated from the following equation[72]: the percentage of protected NBD*-lipid in the inner leaflet = [(FD−F0)/(FT−F0)]×100, and that of accessible NBD*-lipid in the outer leaflet = [(FT−FD)/(FT−F0)]×100, where FT is the total fluorescence of the sample before the addition of dithionite, FD is the fluorescence of the sample after quenching with dithionite, and F0 is any residual fluorescence of the sample after solubilization with Triton X-100. Fluorescence values (FT, FD, F0) were calculated as the averages of 5 points on the respective plateau lines. The ΔTMD0-mediated lipid floppase activity was determined by subtracting the percentage of NBD*-lipid fluorescence measured in the presence of Na^+/ATP from that measured in the presence of Mg^2+/ATP.

[4] = target: the molecule itself; experiment: cryo-EM structure; ΔTMD0 in nanodiscs of E. coli polar lipids, no peptides or nucleotides; inward-facing, 3.4 Å
[5] = target: B1; experiment: MST; 0.2 μM Cy5-labeled peptide with serial 2-fold dilutions of DM-purified protein, 10 min at RT; Monolith NT.115 pico; conditions: both partners purified
[6] = target: T3, mouse TAPL ΔTMD0 Y405A mutant (mouse, UniProt Q9JJ59 143-762, Y405A); experiment: as above; conditions: both partners purified
T3 construct: mouse TAPL (ABCB9) lacking the N-terminal 142 residues (TMD0), with Y405A; source: High Five (Hi5) insect cells, baculovirus; DM-purified; not shown: eGFP, C-terminal, cleaved; His10, C-terminal, cleaved
T3 sequence (looked up): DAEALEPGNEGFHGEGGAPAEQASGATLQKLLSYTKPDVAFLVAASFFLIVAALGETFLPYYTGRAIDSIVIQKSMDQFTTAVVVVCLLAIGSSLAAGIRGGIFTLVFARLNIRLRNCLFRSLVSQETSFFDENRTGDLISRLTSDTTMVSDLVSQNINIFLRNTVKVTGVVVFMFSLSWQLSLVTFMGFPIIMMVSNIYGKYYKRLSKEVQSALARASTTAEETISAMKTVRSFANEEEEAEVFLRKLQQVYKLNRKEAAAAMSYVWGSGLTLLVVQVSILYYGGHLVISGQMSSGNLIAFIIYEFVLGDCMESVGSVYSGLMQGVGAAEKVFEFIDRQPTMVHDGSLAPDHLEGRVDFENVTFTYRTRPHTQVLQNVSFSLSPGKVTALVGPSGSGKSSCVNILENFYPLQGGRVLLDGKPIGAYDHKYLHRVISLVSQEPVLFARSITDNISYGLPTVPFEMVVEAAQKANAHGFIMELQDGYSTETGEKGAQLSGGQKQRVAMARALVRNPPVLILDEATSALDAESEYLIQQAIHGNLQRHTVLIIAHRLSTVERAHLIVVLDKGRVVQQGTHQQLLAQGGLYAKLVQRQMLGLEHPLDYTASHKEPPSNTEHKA

[7] = target: B1; experiment: cryo-EM structure; DM/CHS-purified ΔTMD0 with 1 mM 9-mer peptide, on ice for 30 min; inward-facing, 4.0 Å; conditions: both partners purified
[8] = lipid stimulation, 3 mM ATP, means ± SEM

Q: What does the source list for `CCCCCCCC/C=C\CCCCCCCC(=O)O[C@H](COC(=O)CCCCCCCCCCCCCCC)COP(=O)(O)OC[C@H](N)C(=O)O` [POPS, 1-palmitoyl-2-oleoyl-sn-glycero-3-phospho-l-serine]?
A: maximal ATPase activity (turnover) ([1]; lipid stimulation, 3 mM ATP): 109 min⁻¹; maximal ATPase activity (Vmax) [1, 8]: 808 ± 44 nmol/mg/min; response of Y405A ATPase to lipid [2]: significantly reduced basal and lipid-stimulated ATPase activity; effect on translocation of NBD*-PS [3]: significantly inhibited

Q: Which results are given for `CC(C)CCC[C@@H](C)[C@H]1CC[C@H]2[C@@H]3CC=C4C[C@@H](OC(=O)CCC(=O)O)CC[C@]4(C)[C@H]3CC[C@]12C` [CHS, cholesteryl hemisuccinate]?
A: Vmax relative to POPG-stimulated ATPase activity ([1]; CHS vs POPG): ~ 51%; maximal ATPase activity (turnover) ([1]; lipid stimulation, 3 mM ATP): 80 min⁻¹; Km [1, 8]: 127 ± 28 µM; maximal ATPase activity (Vmax) [1, 8]: 589 ± 18 nmol/mg/min; response of Y405A ATPase to lipid [2]: significantly reduced basal and lipid-stimulated ATPase activity

Q: For B1, which “stoichiometry N” value [4] is on record?
A: The value was 2.

B2: Cy5-labeled 9-mer peptide RRYQNSTC(Cy-5)L (peptide)
peptide: RRYQNSTC(Cy5)L
notes: synthetic 9-mer peptide with a single cysteine for labeling; also called Cy5-labeled peptide; source: synthetic peptide (ANYGEN Co., Ltd.), labeled with Cy5, desalted
Q: B2 was tested. Which Kd [5] did it give?
A: Its Kd is 0.0519 µM.

Q: And the Kd [6]?
A: The Kd was 3.8 µM.

B3: 9-mer peptide RRYQKSTEL (peptide)
peptide: RRYQKSTEL
notes: short synthetic peptide known to be transported by human TAPL; source: synthetic peptide (ANYGEN Co., Ltd.)
Q: Does B3 bind [7]?
A: Result: binds
